Test results from the kinase profiling compilation of Christmann-Franck et al. (2016).

Legend:
Assay in all cases: radiometric filter-binding kinase assay, Kinase HotSpot
Conditions in all cases: compound 0.5 µM; ATP 10 µM
ABL2 (human) = ABL2 (human) (UniProt P42684)
ACVRL1 (human) = ACVRL1 (human) (UniProt P37023)
AKT1 (human) = AKT1 (human) (UniProt P31749)
AURKB (human) = AURKB (human) (UniProt Q96GD4)
BRSK2 (human) = BRSK2 (human) (UniProt Q8IWQ3)
CDK1 CCNA2 (human) = CDK1 CCNA2 (human) (UniProt P06493+P20248)
CDK9 CCNT1 (human) = CDK9 CCNT1 (human) (UniProt P50750+O60563)
CLK4 (human) = CLK4 (human) (UniProt Q9HAZ1)
CSNK1E (human) = CSNK1E (human) (UniProt P49674)
CSNK2A2 (human) = CSNK2A2 (human) (UniProt P19784)
EPHA2 (human) = EPHA2 (human) (UniProt P29317)
EPHB1 (human) = EPHB1 (human) (UniProt P54762)
FLT1 (human) = FLT1 (human) (UniProt P17948)
FLT3 (human) = FLT3 (human) (UniProt P36888)
GRK7 (human) = GRK7 (human) (UniProt Q8WTQ7)
HIPK3 (human) = HIPK3 (human) (UniProt Q9H422)
HIPK4 (human) = HIPK4 (human) (UniProt Q8NE63)
KIT (human) = KIT (human) (UniProt P10721)
MAPK9 (human) = MAPK9 (human) (UniProt P45984)
MAPKAPK5 (human) = MAPKAPK5 (human) (UniProt Q8IW41)
MERTK (human) = MERTK (human) (UniProt Q12866)
MYLK (human) = MYLK (human) (UniProt Q15746)
NEK2 (human) = NEK2 (human) (UniProt P51955)
NLK (human) = NLK (human) (UniProt Q9UBE8)
NUAK1 (human) = NUAK1 (human) (UniProt O60285)
PIM1 (human) = PIM1 (human) (UniProt P11309)
PRKACA (human) = PRKACA (human) (UniProt P17612)
PRKCB2 (human) = PRKCB2 (human) (UniProt P05771)
PRKCG (human) = PRKCG (human) (UniProt P05129)
ROCK2 (human) = ROCK2 (human) (UniProt O75116)
SRPK3 (human) = SRPK3 (human) (UniProt Q9UPE1)
STK24 (human) = STK24 (human) (UniProt Q9Y6E0)
STK4 (human) = STK4 (human) (UniProt Q13043)
TNK2 (human) = TNK2 (human) (UniProt Q07912)
WNK3 (human) = WNK3 (human) (UniProt Q9BYP7)
CDK2 CCNE1 (human) = CDK2 CCNE1 (human) (UniProt P24941+P24864)
CSNK1A1 (human) = CSNK1A1 (human) (UniProt P48729)
CSNK1G3 (human) = CSNK1G3 (human) (UniProt Q9Y6M4)
GRK5 (human) = GRK5 (human) (UniProt P34947)
MARK2 (human) = MARK2 (human) (UniProt Q7KZI7)
KDR (human) = KDR (human) (UniProt P35968)

STK24 (human), sequence (Q9Y6E0 whole entry, looked up): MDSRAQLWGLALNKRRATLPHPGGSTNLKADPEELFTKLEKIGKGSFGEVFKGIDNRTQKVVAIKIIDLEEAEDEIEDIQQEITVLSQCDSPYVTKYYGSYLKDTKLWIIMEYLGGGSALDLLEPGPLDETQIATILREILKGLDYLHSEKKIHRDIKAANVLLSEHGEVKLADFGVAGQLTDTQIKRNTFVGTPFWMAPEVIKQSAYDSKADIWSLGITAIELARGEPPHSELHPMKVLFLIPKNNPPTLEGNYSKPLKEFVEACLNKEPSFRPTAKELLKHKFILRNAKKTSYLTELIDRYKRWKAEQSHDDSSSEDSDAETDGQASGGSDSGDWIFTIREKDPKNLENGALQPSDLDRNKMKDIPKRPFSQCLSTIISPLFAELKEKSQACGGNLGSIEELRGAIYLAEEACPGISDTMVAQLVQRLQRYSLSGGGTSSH
STK4 (human), sequence (Q13043 whole entry, looked up): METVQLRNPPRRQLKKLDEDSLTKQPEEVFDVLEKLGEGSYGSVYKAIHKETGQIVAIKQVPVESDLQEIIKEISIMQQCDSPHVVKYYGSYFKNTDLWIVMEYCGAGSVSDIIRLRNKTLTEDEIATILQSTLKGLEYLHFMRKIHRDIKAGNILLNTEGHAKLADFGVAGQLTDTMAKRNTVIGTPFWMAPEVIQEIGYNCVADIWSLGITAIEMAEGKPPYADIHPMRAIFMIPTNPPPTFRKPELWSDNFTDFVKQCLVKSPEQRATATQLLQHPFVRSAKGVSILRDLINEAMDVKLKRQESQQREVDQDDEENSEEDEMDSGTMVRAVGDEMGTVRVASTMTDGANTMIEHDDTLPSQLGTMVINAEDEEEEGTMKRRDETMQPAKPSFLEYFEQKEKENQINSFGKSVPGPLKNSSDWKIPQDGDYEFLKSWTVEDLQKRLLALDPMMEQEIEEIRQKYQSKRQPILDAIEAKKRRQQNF
PIM1 (human), sequence (P11309 whole entry, looked up): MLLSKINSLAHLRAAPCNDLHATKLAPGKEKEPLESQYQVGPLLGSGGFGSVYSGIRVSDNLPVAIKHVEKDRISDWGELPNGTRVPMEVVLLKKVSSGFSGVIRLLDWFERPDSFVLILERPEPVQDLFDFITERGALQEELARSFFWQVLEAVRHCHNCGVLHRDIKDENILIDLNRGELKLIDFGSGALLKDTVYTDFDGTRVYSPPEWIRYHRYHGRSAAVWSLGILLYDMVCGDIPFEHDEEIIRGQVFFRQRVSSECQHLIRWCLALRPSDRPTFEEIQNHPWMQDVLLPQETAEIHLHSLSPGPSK
WNK3 (human), sequence (Q9BYP7 whole entry, looked up): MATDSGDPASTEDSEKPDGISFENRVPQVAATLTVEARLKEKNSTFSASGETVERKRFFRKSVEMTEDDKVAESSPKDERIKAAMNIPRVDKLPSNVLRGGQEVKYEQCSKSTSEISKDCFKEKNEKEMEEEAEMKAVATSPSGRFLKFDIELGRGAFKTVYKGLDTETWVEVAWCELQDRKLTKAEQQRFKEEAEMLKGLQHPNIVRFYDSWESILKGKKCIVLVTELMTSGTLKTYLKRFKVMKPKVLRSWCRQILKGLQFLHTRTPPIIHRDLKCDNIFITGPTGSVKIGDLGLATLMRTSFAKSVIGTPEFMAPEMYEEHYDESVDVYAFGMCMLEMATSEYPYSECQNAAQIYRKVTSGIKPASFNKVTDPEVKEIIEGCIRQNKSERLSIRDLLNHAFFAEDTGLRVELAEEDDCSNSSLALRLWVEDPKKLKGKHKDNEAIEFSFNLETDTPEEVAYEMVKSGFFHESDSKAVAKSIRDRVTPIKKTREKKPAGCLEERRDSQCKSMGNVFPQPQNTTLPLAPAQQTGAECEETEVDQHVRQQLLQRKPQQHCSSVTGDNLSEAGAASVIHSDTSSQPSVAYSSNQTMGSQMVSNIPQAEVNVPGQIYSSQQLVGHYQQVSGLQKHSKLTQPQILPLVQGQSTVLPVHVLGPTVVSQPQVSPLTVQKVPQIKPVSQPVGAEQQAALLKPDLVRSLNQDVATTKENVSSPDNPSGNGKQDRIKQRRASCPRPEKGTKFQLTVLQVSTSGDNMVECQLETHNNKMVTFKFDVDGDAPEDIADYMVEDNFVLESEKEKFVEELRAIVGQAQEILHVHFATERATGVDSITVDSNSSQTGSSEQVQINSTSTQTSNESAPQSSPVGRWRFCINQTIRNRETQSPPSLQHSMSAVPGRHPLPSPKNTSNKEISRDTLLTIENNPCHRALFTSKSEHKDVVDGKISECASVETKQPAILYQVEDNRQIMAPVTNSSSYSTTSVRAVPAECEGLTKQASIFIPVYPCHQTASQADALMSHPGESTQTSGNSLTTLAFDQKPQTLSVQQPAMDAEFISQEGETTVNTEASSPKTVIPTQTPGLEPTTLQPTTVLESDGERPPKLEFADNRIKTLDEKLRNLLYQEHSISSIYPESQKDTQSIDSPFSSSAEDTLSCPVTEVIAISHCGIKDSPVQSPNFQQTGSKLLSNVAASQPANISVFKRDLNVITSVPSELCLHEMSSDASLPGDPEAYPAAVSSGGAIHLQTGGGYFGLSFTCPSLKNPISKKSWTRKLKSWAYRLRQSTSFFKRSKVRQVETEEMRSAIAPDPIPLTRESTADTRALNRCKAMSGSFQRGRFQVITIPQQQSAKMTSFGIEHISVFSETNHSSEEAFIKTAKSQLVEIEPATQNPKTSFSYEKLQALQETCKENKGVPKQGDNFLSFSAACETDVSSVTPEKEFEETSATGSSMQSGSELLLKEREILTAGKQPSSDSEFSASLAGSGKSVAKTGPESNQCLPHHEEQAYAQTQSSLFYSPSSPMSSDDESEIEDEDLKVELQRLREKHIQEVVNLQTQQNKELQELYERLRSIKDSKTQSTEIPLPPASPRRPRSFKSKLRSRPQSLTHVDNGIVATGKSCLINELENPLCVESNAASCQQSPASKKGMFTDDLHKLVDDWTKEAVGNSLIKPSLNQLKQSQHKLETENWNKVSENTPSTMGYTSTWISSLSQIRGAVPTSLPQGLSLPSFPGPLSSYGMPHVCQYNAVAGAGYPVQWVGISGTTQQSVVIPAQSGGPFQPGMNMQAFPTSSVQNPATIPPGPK
MAPK9 (human), sequence (P45984 whole entry, looked up): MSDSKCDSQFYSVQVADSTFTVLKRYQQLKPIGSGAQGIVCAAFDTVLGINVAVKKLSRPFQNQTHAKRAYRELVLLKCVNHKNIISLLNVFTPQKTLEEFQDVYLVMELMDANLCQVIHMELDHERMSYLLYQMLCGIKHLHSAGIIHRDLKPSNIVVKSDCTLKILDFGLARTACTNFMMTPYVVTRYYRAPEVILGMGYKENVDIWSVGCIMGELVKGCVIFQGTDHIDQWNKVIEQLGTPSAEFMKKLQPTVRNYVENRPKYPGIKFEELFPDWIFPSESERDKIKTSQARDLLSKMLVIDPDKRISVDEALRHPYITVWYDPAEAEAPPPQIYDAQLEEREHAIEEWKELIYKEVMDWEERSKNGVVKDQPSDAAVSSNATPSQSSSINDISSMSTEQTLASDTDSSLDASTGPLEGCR
PRKCB2 (human), sequence (P05771 whole entry, looked up): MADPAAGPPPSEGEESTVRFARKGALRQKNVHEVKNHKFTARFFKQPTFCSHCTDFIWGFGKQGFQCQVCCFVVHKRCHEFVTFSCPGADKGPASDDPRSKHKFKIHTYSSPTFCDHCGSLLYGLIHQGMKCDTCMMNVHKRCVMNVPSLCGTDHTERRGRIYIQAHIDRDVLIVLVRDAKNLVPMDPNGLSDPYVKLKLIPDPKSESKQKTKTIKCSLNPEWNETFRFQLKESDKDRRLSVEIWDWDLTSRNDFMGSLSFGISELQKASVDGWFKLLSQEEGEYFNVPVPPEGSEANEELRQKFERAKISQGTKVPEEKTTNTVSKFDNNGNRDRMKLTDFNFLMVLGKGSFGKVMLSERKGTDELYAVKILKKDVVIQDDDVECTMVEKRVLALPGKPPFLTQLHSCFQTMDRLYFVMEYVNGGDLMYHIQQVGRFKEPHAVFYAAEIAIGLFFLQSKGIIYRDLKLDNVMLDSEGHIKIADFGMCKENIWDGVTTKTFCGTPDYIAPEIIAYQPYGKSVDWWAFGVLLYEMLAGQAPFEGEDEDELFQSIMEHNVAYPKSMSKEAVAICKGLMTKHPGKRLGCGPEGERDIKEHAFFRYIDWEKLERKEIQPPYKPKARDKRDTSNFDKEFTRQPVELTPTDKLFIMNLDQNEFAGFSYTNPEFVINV

Compound	residual activity (ABL2 (human))	residual activity (ACVRL1 (human))	residual activity (AKT1 (human))	residual activity (BRSK2 (human))	residual activity (CDK1 CCNA2 (human))	residual activity (CDK9 CCNT1 (human))	residual activity (CLK4 (human))	residual activity (CSNK1E (human))	residual activity (CSNK2A2 (human))	residual activity (EPHA2 (human))	residual activity (EPHB1 (human))	residual activity (FLT1 (human))	residual activity (FLT3 (human))	residual activity (GRK7 (human))	residual activity (HIPK3 (human))	residual activity (HIPK4 (human))	residual activity (KIT (human))	residual activity (MAPK9 (human))	residual activity (MAPKAPK5 (human))	residual activity (MERTK (human))	also measured
CCN(CC)CCNC(=O)c1c(C)[nH]c(/C=C2\C(=O)Nc3ccc(F)cc32)c1C	61.8%	112%	105%	54.5%	98.4%	88.7%	26.3%	46.9%	92.2%	83.6%	53.6%	58.7%	2.71%	71.3%	47.3%	74.7%	8.74%	96.7%	82.7%	39.8%	residual activity (AURKB (human)): 48.7%; residual activity (MYLK (human)): 25.6%; residual activity (NEK2 (human)): 106%; residual activity (NLK (human)): 105%; residual activity (NUAK1 (human)): 2.75%; residual activity (PIM1 (human)): 94.4%; residual activity (PRKACA (human)): 89.1%; residual activity (PRKCB2 (human)): 104%; residual activity (PRKCG (human)): 83.8%; residual activity (ROCK2 (human)): 72.1%; residual activity (SRPK3 (human)): 102%; residual activity (STK24 (human)): 39.7%; residual activity (STK4 (human)): 10.7%; residual activity (TNK2 (human)): 64.1%; residual activity (WNK3 (human)): 94.3%
CNC(=O)c1cc(Oc2ccc(NC(=O)Nc3ccc(Cl)c(C(F)(F)F)c3)cc2)ccn1	99.4%	104%	96.2%	103%	100%	98.3%	95.2%	95.9%	94.4%	83.8%	102%	50.5%	9.22%	97.3%	85.7%	4.85%	53.3%	94.8%	95.8%	88.2%	residual activity (CDK2 CCNE1 (human)): 98.2%; residual activity (CSNK1A1 (human)): 97.8%; residual activity (CSNK1G3 (human)): 99.8%; residual activity (GRK5 (human)): 97.8%; residual activity (MARK2 (human)): 94.9%; residual activity (MYLK (human)): 93.7%; residual activity (NEK2 (human)): 99.3%; residual activity (NLK (human)): 99.1%; residual activity (NUAK1 (human)): 103%; residual activity (PIM1 (human)): 97.1%; residual activity (PRKACA (human)): 92.6%; residual activity (PRKCB2 (human)): 97.5%; residual activity (PRKCG (human)): 94.7%; residual activity (ROCK2 (human)): 101%; residual activity (SRPK3 (human)): 88.4%; residual activity (STK24 (human)): 110%; residual activity (STK4 (human)): 101%; residual activity (TNK2 (human)): 97.6%; residual activity (WNK3 (human)): 99.2%
COc1ccc(COc2ccc(Cc3cnc(N)nc3N)cc2OC)cc1	107%	101%	97.4%	96.8%	98.7%	92.5%	86.5%	97.1%	97.4%	107%	103%	99.7%	103%	104%	102%	97.7%	106%	106%	87.5%	90.3%	residual activity (AURKB (human)): 104%; residual activity (CSNK1A1 (human)): 97.9%; residual activity (GRK5 (human)): 109%; residual activity (KDR (human)): 109%; residual activity (MYLK (human)): 95.7%; residual activity (NEK2 (human)): 99.2%; residual activity (NLK (human)): 105%; residual activity (NUAK1 (human)): 106%; residual activity (PIM1 (human)): 104%; residual activity (PRKACA (human)): 104%; residual activity (PRKCB2 (human)): 110%; residual activity (PRKCG (human)): 102%; residual activity (ROCK2 (human)): 84.1%; residual activity (SRPK3 (human)): 102%; residual activity (STK24 (human)): 93.5%; residual activity (STK4 (human)): 106%; residual activity (TNK2 (human)): 105%; residual activity (WNK3 (human)): 100%
